Drawing on ChEMBL document CHEMBL3045767, “Synthesis of novel 2-[4-(4-substitutedbenzamido/phenylacetamido)phenyl]benzothiazoles as antimicrobial agents” (2012), this text covers MIC and Ratio for 11 compounds.

Format in all cases: functional
Assay [1] deals with Candida albicans. Briefly: Antifungal activity against Candida albicans ATCC 10231 after 48 hr by CLSI broth microdilution method. The settings on record: ATCC 10231, 48 h. (In general: Broth dilution looks for growth in wells or tubes with falling amounts of substance.)
The test system of assay [2] is Staphylococcus aureus. Briefly: Antibacterial activity against methicillin-resistant Staphylococcus aureus after 24 hr by CLSI broth microdilution method.
For assay [3], the system named is Bacillus subtilis. Briefly: Antibacterial activity against ceftriaxon-resistant Bacillus subtilis after 24 hr by CLSI broth microdilution method.
For assay [4], the system named is Staphylococcus aureus. Nature of the assay: Antibacterial activity against Staphylococcus aureus ATCC 25923 after 24 hr by CLSI broth microdilution method. The settings on record: ATCC 25923, 24 h.
The subject of assay [5] is Bacillus subtilis. Nature of the assay: Antibacterial activity against Bacillus subtilis ATCC 6633 after 24 hr by CLSI broth microdilution method. The settings on record: ATCC 6633, 24 h.
Assay [6] has as its system Escherichia coli. Nature of the assay: Antibacterial activity against Escherichia coli producing extended spectrum beta lactamase enzyme after 24 hr by CLSI broth microdilution method.
The subject of assay [7] is Pseudomonas aeruginosa. Nature of the assay: Antibacterial activity against gentamicin-resistant Pseudomonas aeruginosa after 24 hr by CLSI broth microdilution method.
Assay [8] has as its system Escherichia coli. Nature of the assay: Antibacterial activity against Escherichia coli ATCC 25922 after 24 hr by CLSI broth microdilution method. The following applies: ATCC 25922, 24 h.
Assay [9] deals with Pseudomonas aeruginosa. Briefly: Antibacterial activity against Pseudomonas aeruginosa ATCC […] after 24 hr by CLSI broth microdilution method. The settings on record: ATCC 25853, 24 h.
Assay [10] has as its system Klebsiella pneumoniae. Nature of the assay: Antibacterial activity against Klebsiella pneumoniae RSKK 574 after 24 hr by CLSI broth microdilution method. The following applies: RSKK 574, 24 h.
The subject of assay [11] is Klebsiella pneumoniae. Briefly: Antibacterial activity against Klebsiella pneumoniae producing extended spectrum beta lactamase enzyme after 24 hr by CLSI broth microdilution method.
The subject of assay [12] is Pseudomonas aeruginosa. Nature of the assay: Ratio of ofloxacin MIC to compound MIC for gentamicin-resistant Pseudomonas aeruginosa.
The test system of assay [13] is Pseudomonas aeruginosa. Briefly: Ratio of gentamycin sulfate MIC to compound MIC for gentamicin-resistant Pseudomonas aeruginosa.
For assay [14], the system named is Candida albicans. Briefly: Antifungal activity against Candida albicans.

Values after ≈ are worked out from the molar mass of the structure shown.

As for `O=C(Nc1ccc(-c2nc3ccccc3s2)cc1)c1ccc(Cl)cc1`, the MIC was 25 µg/mL (≈ 68.5 µM) in the assay on Candida albicans [1]; 12.5 µg/mL (≈ 34.3 µM) in the assay on Staphylococcus aureus [2]; 50 µg/mL (≈ 137 µM) against Bacillus subtilis [3]; 50 µg/mL (≈ 137 µM) against Staphylococcus aureus [4]; 50 µg/mL (≈ 137 µM) in the assay with Bacillus subtilis [5]; 50 µg/mL (≈ 137 µM) in the assay with Escherichia coli [6]. In addition, the MIC against Pseudomonas aeruginosa [7] is 25 µg/mL (≈ 68.5 µM); against Escherichia coli [8] it was 50 µg/mL (≈ 137 µM); in the assay with Pseudomonas aeruginosa [9] it was 25 µg/mL (≈ 68.5 µM); against Klebsiella pneumoniae [10], 50 µg/mL (≈ 137 µM); with Klebsiella pneumoniae [11] it was 25 µg/mL (≈ 68.5 µM).

With `COc1ccc(CC(=O)Nc2ccc(-c3nc4ccccc4s3)cc2)cc1`, the Ratio in the assay with Pseudomonas aeruginosa [12] and in the assay with Pseudomonas aeruginosa [13] was 3 each time. For the same compound, the MIC came to 12.5 µg/mL (≈ 33.4 µM) in the assay with Candida albicans [1]; 12.5 µg/mL (≈ 33.4 µM) in the assay on Staphylococcus aureus [2]; 50 µg/mL (≈ 134 µM) against Bacillus subtilis [3]; 50 µg/mL (≈ 134 µM) against Staphylococcus aureus [4]; 12.5 µg/mL (≈ 33.4 µM) in the assay with Bacillus subtilis [5]; 25 µg/mL (≈ 66.8 µM) in the assay with Escherichia coli [6]. The MIC stood at 6.25 µg/mL (≈ 16.7 µM) against Pseudomonas aeruginosa [7]; 12.5 µg/mL (≈ 33.4 µM) in the assay on Escherichia coli [8]; 25 µg/mL (≈ 66.8 µM) with Pseudomonas aeruginosa [9]; 12.5 µg/mL (≈ 33.4 µM) against Klebsiella pneumoniae [10]; 50 µg/mL (≈ 134 µM) with Klebsiella pneumoniae [11].

Consider `CCc1ccc(C(=O)Nc2ccc(-c3nc4ccccc4s3)cc2)cc1`, for which the MIC is 12.5 µg/mL (≈ 34.9 µM) in the assay with Candida albicans [1]; 6.25 µg/mL (≈ 17.4 µM) against Staphylococcus aureus [2]; 50 µg/mL (≈ 139 µM) against Bacillus subtilis [3]; 50 µg/mL (≈ 139 µM) in the assay on Staphylococcus aureus [4]; 50 µg/mL (≈ 139 µM) in the assay with Bacillus subtilis [5]; 50 µg/mL (≈ 139 µM) against Escherichia coli [6]. For the same compound, the MIC in the assay on Pseudomonas aeruginosa [7] came out at 25 µg/mL (≈ 69.7 µM); in the assay on Escherichia coli [8] it was 25 µg/mL (≈ 69.7 µM); in the assay with Pseudomonas aeruginosa [9], 25 µg/mL (≈ 69.7 µM); against Klebsiella pneumoniae [10] it was 25 µg/mL (≈ 69.7 µM); in the assay with Klebsiella pneumoniae [11], 50 µg/mL (≈ 139 µM).

Turning to `c1ccc(CCc2nc3ccccc3s2)cc1` [2-PHENETHYLBENZO[D]THIAZOLE], the MIC against Candida albicans [14] was 3.12 µg/mL (≈ 13 µM).

`Cc1ccc(CC(=O)Nc2ccc(-c3nc4ccccc4s3)cc2)cc1`: the MIC in the assay with Candida albicans [1] turned out to be 25 µg/mL (≈ 69.7 µM); in the assay with Staphylococcus aureus [2], 25 µg/mL (≈ 69.7 µM); with Bacillus subtilis [3], 50 µg/mL (≈ 139 µM); in the assay with Staphylococcus aureus [4] it was 50 µg/mL (≈ 139 µM); in the assay with Bacillus subtilis [5], 50 µg/mL (≈ 139 µM); against Escherichia coli [6] it was 50 µg/mL (≈ 139 µM). Besides, the minimum inhibitory concentration (MIC) stood at 25 µg/mL (≈ 69.7 µM) in the assay with Pseudomonas aeruginosa [7]; 50 µg/mL (≈ 139 µM) in the assay on Escherichia coli [8]; 25 µg/mL (≈ 69.7 µM) against Pseudomonas aeruginosa [9]; 25 µg/mL (≈ 69.7 µM) against Klebsiella pneumoniae [10]; 50 µg/mL (≈ 139 µM) in the assay on Klebsiella pneumoniae [11].

Take `O=C(Nc1ccc(-c2nc3ccccc3s2)cc1)c1ccc([N+](=O)[O-])cc1`: the MIC in the assay on Candida albicans [1] stood at 12.5 µg/mL (≈ 33.3 µM); in the assay on Staphylococcus aureus [2], 12.5 µg/mL (≈ 33.3 µM); against Bacillus subtilis [3] it was 50 µg/mL (≈ 133 µM); against Staphylococcus aureus [4], 50 µg/mL (≈ 133 µM); against Bacillus subtilis [5], 50 µg/mL (≈ 133 µM); in the assay on Escherichia coli [6], 50 µg/mL (≈ 133 µM). Besides, the MIC was 25 µg/mL (≈ 66.6 µM) against Pseudomonas aeruginosa [7]; 25 µg/mL (≈ 66.6 µM) in the assay with Escherichia coli [8]; 25 µg/mL (≈ 66.6 µM) with Pseudomonas aeruginosa [9]; 50 µg/mL (≈ 133 µM) against Klebsiella pneumoniae [10]; 50 µg/mL (≈ 133 µM) against Klebsiella pneumoniae [11].

In the assay on Candida albicans [14], `c1ccc2sc(CCC3CCCCC3)nc2c1` had an MIC of 3.12 µg/mL (≈ 12.7 µM).

For `O=C(Nc1ccc(-c2nc3ccccc3s2)cc1)c1ccc(Br)cc1`, the MIC worked out at 25 µg/mL (≈ 61.1 µM) in the assay with Candida albicans [1]; 25 µg/mL (≈ 61.1 µM) with Staphylococcus aureus [2]; 100 µg/mL (≈ 244 µM) against Bacillus subtilis [3]; 50 µg/mL (≈ 122 µM) against Staphylococcus aureus [4]; 50 µg/mL (≈ 122 µM) in the assay on Bacillus subtilis [5]; 50 µg/mL (≈ 122 µM) against Escherichia coli [6]. The MIC turned out to be 25 µg/mL (≈ 61.1 µM) in the assay on Pseudomonas aeruginosa [7]; 50 µg/mL (≈ 122 µM) against Escherichia coli [8]; 25 µg/mL (≈ 61.1 µM) in the assay with Pseudomonas aeruginosa [9]; 50 µg/mL (≈ 122 µM) with Klebsiella pneumoniae [10]; 50 µg/mL (≈ 122 µM) in the assay with Klebsiella pneumoniae [11].

Turning to `O=C(Cc1ccc(Cl)cc1)Nc1ccc(-c2nc3ccccc3s2)cc1`, the MIC in the assay with Candida albicans [1] worked out at 25 µg/mL (≈ 66 µM); against Staphylococcus aureus [2], 50 µg/mL (≈ 132 µM); against Bacillus subtilis [3] it was 50 µg/mL (≈ 132 µM); with Staphylococcus aureus [4], 50 µg/mL (≈ 132 µM); with Bacillus subtilis [5], 50 µg/mL (≈ 132 µM); against Escherichia coli [6], 50 µg/mL (≈ 132 µM). In addition, the MIC was determined as 25 µg/mL (≈ 66 µM) in the assay with Pseudomonas aeruginosa [7]; 50 µg/mL (≈ 132 µM) in the assay with Escherichia coli [8]; 25 µg/mL (≈ 66 µM) against Pseudomonas aeruginosa [9]; 50 µg/mL (≈ 132 µM) with Klebsiella pneumoniae [10]; 50 µg/mL (≈ 132 µM) with Klebsiella pneumoniae [11].

`O=C(Cc1ccc(F)cc1)Nc1ccc(-c2nc3ccccc3s2)cc1`: the minimum inhibitory concentration (MIC) was 25 µg/mL (≈ 69 µM) against Candida albicans [1]; 50 µg/mL (≈ 138 µM) in the assay with Staphylococcus aureus [2]; 25 µg/mL (≈ 69 µM) against Bacillus subtilis [3]; 100 µg/mL (≈ 276 µM) with Staphylococcus aureus [4]; 50 µg/mL (≈ 138 µM) in the assay with Bacillus subtilis [5]; 50 µg/mL (≈ 138 µM) against Escherichia coli [6]. Further, the minimal inhibitory concentration (MIC) with Pseudomonas aeruginosa [7] came out at 25 µg/mL (≈ 69 µM); in the assay on Escherichia coli [8], 25 µg/mL (≈ 69 µM); in the assay with Pseudomonas aeruginosa [9], 25 µg/mL (≈ 69 µM); against Klebsiella pneumoniae [10], 50 µg/mL (≈ 138 µM); against Klebsiella pneumoniae [11], 50 µg/mL (≈ 138 µM).

Take `c1ccc(SCc2nc3ccccc3s2)cc1` [2-(PHENYLTHIOMETHYL)BENZO[D]THIAZOLE]: the minimal inhibitory concentration (MIC) with Candida albicans [14] worked out at 3.12 µg/mL (≈ 12.1 µM).

What is called MIC is the lowest concentration that inhibits growth of the organism. Low values mean inhibition by little substance, high ones a need for much substance.
